Earlier results, collected in patent US20110142971A1, “USE OF AN ONION EXTRACT FOR MAKING A COMPOSITION TO CONTROL WEIGHT GAIN” (priority 2005, published 2011).

Tests used:
[1] = in vivo
pancreatic lipase = biological target: T1, pancreatic lipase (Homo sapiens, UniProt P16233); conditions: human species
T1 construct: host or cells: human subjects (in vivo, digestive tract)
T1 sequence (P16233 17-465): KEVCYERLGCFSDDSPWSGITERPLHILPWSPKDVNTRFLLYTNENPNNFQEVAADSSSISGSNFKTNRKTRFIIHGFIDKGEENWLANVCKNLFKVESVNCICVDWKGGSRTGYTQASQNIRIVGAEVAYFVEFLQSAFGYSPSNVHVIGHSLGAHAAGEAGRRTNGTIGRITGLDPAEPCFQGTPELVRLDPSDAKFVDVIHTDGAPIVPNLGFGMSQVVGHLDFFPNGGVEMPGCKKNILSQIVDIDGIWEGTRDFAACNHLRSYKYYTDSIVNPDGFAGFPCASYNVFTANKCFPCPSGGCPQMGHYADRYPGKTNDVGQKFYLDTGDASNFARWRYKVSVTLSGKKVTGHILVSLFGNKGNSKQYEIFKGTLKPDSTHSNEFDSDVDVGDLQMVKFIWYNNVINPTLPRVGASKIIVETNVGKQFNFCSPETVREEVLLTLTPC

SMILES: CCCCCCCCCCC[C@@H](C[C@@H]1OC(=O)[C@H]1CCCCCC)OC(=O)[C@H](CC(C)C)NC=O [tetrahydrolipstatin, [2S-[2-α(R),3β]]-N-formyl-L-leucine 1-[(3-hexyl-4-oxo-2-oxetanyl)methyl]dodecyl ester]
- Side effects [1]: steatorrhoea, anal exudation, abdominal pains, nausea and vomiting, or fat-soluble vitamin absorption reduction
- Average reduction of the lipids contained in food (pancreatic lipase): about one third
